For the experiment, the system named is L1210 leukemia ip in BDF1 mice, survival T/C. Description: NCI In Vivo Anticancer Drug Screen. Data for tumor model L1210 Leukemia (intraperitoneal) in B6D2F1 (BDF1) mice. The conditions noted are these: endpoint: mean survival time, higher = longer survival. In short, it runs like this:
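Tumor cells were implanted, animals were treated, and survival was followed. The result divides the treated measurement by the vehicle-control measurement.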

[1] abbreviates: dose: 25.0 mg/kg/injection, schedule: Q04DX002 (ip), vehicle: Klucel (hydroxypropylcellulose) (HPC).
The mark [2] stands for this setting: dose: 50.0 mg/kg/injection, schedule: Q04DX002 (ip), vehicle: Klucel (hydroxypropylcellulose) (HPC).
The mark [3] stands for this setting: dose: 100.0 mg/kg/injection, schedule: Q04DX002 (ip), vehicle: Klucel (hydroxypropylcellulose) (HPC).
The mark [4] stands for this setting: dose: 100.0 mg/kg/injection, schedule: Q01DX001 (ip), vehicle: carboxymethylcellulose (CMC).
[5] abbreviates: dose: 200.0 mg/kg/injection, schedule: Q01DX001 (ip), vehicle: carboxymethylcellulose (CMC).

SMILES strings stand for the structures. Values joined by “and” are separate entries in the source; they are usually repeats but may differ in a detail not shown here. Equal values may be shown once. Inconclusive results and toxic doses are left out.

`O=S(=O)(c1ccccc1)N1C=CC=CC=C1`: the T/C is, setting by setting: under setting [1], 102 % of control; under setting [2], 102 % of control; under setting [3], 105 % of control.

For the compound `O=C(Nc1ccc(C2=NCCN2)cc1)Nc1cccc(NC(=O)Nc2ccc(C3=NCCN3)cc2)c1`, the T/C reads like this: (dose: 7.5 mg/kg/injection, schedule: Q01DX Z (ip), vehicle: carboxymethylcellulose (CMC)) 119 % of control; (dose: 7.5 mg/kg/injection, schedule: Q#A X Z (ip), vehicle: carboxymethylcellulose (CMC)) 180 % of control; (dose: 15.0 mg/kg/injection, schedule: Q01DX Z (ip), vehicle: carboxymethylcellulose (CMC)) 189 % of control; (dose: 15.0 mg/kg/injection, schedule: Q#A X Z (ip), vehicle: carboxymethylcellulose (CMC)) 215 % of control; (dose: 22.5 mg/kg/injection, schedule: Q03DX Z (ip), vehicle: carboxymethylcellulose (CMC)) 122 % of control; (dose: 30.0 mg/kg/injection, schedule: Q01DX Z (ip), vehicle: carboxymethylcellulose (CMC)) 206 % of control and 227 % of control and 315 % of control. The T/C runs as follows: (dose: 30.0 mg/kg/injection, schedule: Q01DX Z (sc), vehicle: carboxymethylcellulose (CMC)) 101 % of control and 107 % of control; (dose: 30.0 mg/kg/injection, schedule: Q#A X Z (ip), vehicle: carboxymethylcellulose (CMC)) 220 % of control; (dose: 60.0 mg/kg/injection, schedule: Q01DX004 (im), vehicle: olive oil, sesame oil, peanut oil) 92 % of control; (dose: 60.0 mg/kg/injection, schedule: Q01DX Z (ip), vehicle: carboxymethylcellulose (CMC)) 216 % of control and 255 % of control and 337 % of control; (dose: 60.0 mg/kg/injection, schedule: Q01DX Z (sc), vehicle: carboxymethylcellulose (CMC)) 97 % of control and 102 % of control; (dose: 60.0 mg/kg/injection, schedule: Q#A X Z (ip), vehicle: carboxymethylcellulose (CMC)) 234 % of control. For the same compound, the T/C (dose: 62.5 mg/kg/injection, schedule: Q## X009 (oral), vehicle: saline) is 98 % of control; the T/C (dose: 74.0 mg/kg/injection, schedule: Q01DX Z (ip), vehicle: carboxymethylcellulose (CMC)) is 280 % of control; the T/C (dose: 90.0 mg/kg/injection, schedule: Q03DX Z (ip), vehicle: carboxymethylcellulose (CMC)) was 227 % of control; the T/C (dose: 120.0 mg/kg/injection, schedule: Q01DX004 (im), vehicle: olive oil, sesame oil, peanut oil) is 102 % of control; the T/C (dose: 120.0 mg/kg/injection, schedule: Q01DX Z (ip), vehicle: carboxymethylcellulose (CMC)) was 225 % of control and 234 % of control and 331 % of control; the T/C (dose: 120.0 mg/kg/injection, schedule: Q01DX Z (oral), vehicle: carboxymethylcellulose (CMC)) was 98 % of control. Moreover, the T/C runs as follows: (dose: 120.0 mg/kg/injection, schedule: Q01DX Z (sc), vehicle: carboxymethylcellulose (CMC)) 101 % of control and 104 % of control; (dose: 120.0 mg/kg/injection, schedule: Q#A X Z (ip), vehicle: carboxymethylcellulose (CMC)) 218 % of control; (dose: 125.0 mg/kg/injection, schedule: Q## X010 (oral), vehicle: saline) 95 % of control; (dose: 148.0 mg/kg/injection, schedule: Q01DX Z (ip), vehicle: carboxymethylcellulose (CMC)) 271 % of control; (dose: 180.0 mg/kg/injection, schedule: Q03DX Z (ip), vehicle: carboxymethylcellulose (CMC)) 265 % of control; (dose: 210.0 mg/kg/injection, schedule: Q07DX Z (ip), vehicle: carboxymethylcellulose (CMC)) 194 % of control. Besides, the T/C by setting is: (dose: 222.0 mg/kg/injection, schedule: Q01DX Z (ip), vehicle: carboxymethylcellulose (CMC)) 204 % of control; (dose: 240.0 mg/kg/injection, schedule: Q01DX004 (im), vehicle: olive oil, sesame oil, peanut oil) 101 % of control; (dose: 240.0 mg/kg/injection, schedule: Q01DX Z (ip), vehicle: carboxymethylcellulose (CMC)) 223 % of control and 260 % of control and 309 % of control; (dose: 240.0 mg/kg/injection, schedule: Q01DX Z (oral), vehicle: carboxymethylcellulose (CMC)) 97 % of control; (dose: 240.0 mg/kg/injection, schedule: Q01DX Z (sc), vehicle: carboxymethylcellulose (CMC)) 95 % of control and 105 % of control; (dose: 240.0 mg/kg/injection, schedule: Q#A X Z (ip), vehicle: carboxymethylcellulose (CMC)) 182 % of control. The T/C by setting is: (dose: 250.0 mg/kg/injection, schedule: Q## X010 (oral), vehicle: saline) 102 % of control; (dose: 300.0 mg/kg/injection, schedule: Q01DX001 (ip), vehicle: carboxymethylcellulose (CMC)) 172 % of control; (dose: 333.0 mg/kg/injection, schedule: Q01DX Z (ip), vehicle: carboxymethylcellulose (CMC)) 178 % of control; (dose: 360.0 mg/kg/injection, schedule: Q03DX Z (ip), vehicle: carboxymethylcellulose (CMC)) 253 % of control; (dose: 420.0 mg/kg/injection, schedule: Q07DX Z (ip), vehicle: carboxymethylcellulose (CMC)) 190 % of control; (dose: 480.0 mg/kg/injection, schedule: Q01DX004 (im), vehicle: olive oil, sesame oil, peanut oil) 106 % of control. The T/C (dose: 480.0 mg/kg/injection, schedule: Q01DX Z (ip), vehicle: carboxymethylcellulose (CMC)) was 177 % of control and 215 % of control; the T/C (dose: 480.0 mg/kg/injection, schedule: Q01DX Z (oral), vehicle: carboxymethylcellulose (CMC)) is 97 % of control; the T/C (dose: 480.0 mg/kg/injection, schedule: Q01DX Z (sc), vehicle: carboxymethylcellulose (CMC)) is 105 % of control and 108 % of control; the T/C (dose: 500.0 mg/kg/injection, schedule: Q01DX Z (ip), vehicle: carboxymethylcellulose (CMC)) is 156 % of control; the T/C (dose: 500.0 mg/kg/injection, schedule: Q## X009 (oral), vehicle: saline) was 98 % of control; the T/C (dose: 720.0 mg/kg/injection, schedule: Q03DX Z (ip), vehicle: carboxymethylcellulose (CMC)) is 252 % of control. Besides, the T/C reads like this: (dose: 840.0 mg/kg/injection, schedule: Q07DX Z (ip), vehicle: carboxymethylcellulose (CMC)) 227 % of control; (dose: 960.0 mg/kg/injection, schedule: Q01DX Z (oral), vehicle: carboxymethylcellulose (CMC)) 97 % of control; (dose: 1440.0 mg/kg/injection, schedule: Q03DX Z (ip), vehicle: carboxymethylcellulose (CMC)) 231 % of control; (dose: 1680.0 mg/kg/injection, schedule: Q07DX Z (ip), vehicle: carboxymethylcellulose (CMC)) 239 % of control; (dose: 1920.0 mg/kg/injection, schedule: Q01DX Z (oral), vehicle: carboxymethylcellulose (CMC)) 98 % of control; (dose: 3360.0 mg/kg/injection, schedule: Q07DX Z (ip), vehicle: carboxymethylcellulose (CMC)) 300 % of control.

As to `Cc1cnc(NN)nc1-c1ccccc1O`, the T/C runs as follows: under setting [1], 95 % of control; under setting [2], 97 % of control; under setting [3], 105 % of control and 110 % of control.

In the case of `NC1CON(C(c2ccccc2)(c2ccccc2)c2ccccc2)C1=O` (stereo not given), the T/C runs as follows: under setting [4], 94 % of control; under setting [5], 89 % of control.

With `Cc1nc2ccc(N=Cc3ccc(N(CCCl)CCCl)cc3)cc2[nH]1`, the T/C runs as follows: (dose: 100.0 mg/kg/injection, schedule: Q04DX003 (ip), vehicle: Klucel (hydroxypropylcellulose) (HPC)) 102 % of control; (dose: 200.0 mg/kg/injection, schedule: Q04DX003 (ip), vehicle: Klucel (hydroxypropylcellulose) (HPC)) 98 % of control; (dose: 400.0 mg/kg/injection, schedule: Q04DX003 (ip), vehicle: Klucel (hydroxypropylcellulose) (HPC)) 104 % of control.

As to `CN(C)CCCNC(=O)Nc1ccc(Cl)cc1`, the T/C was 101 % of control (dose: 100.0 mg/kg/injection, schedule: Q04DX002 (ip), vehicle: other); 101 % of control (dose: 200.0 mg/kg/injection, schedule: Q04DX002 (ip), vehicle: other); 97 % of control (dose: 400.0 mg/kg/injection, schedule: Q04DX002 (ip), vehicle: other).

For `Cc1cc(OC(=O)Nc2cccc([N+](=O)[O-])c2)cc(C)c1Cl`, the T/C by setting is: (dose: 100.0 mg/kg/injection, schedule: Q01DX009 (ip), vehicle: Klucel (hydroxypropylcellulose) (HPC)) 100 % of control; (dose: 200.0 mg/kg/injection, schedule: Q01DX009 (ip), vehicle: Klucel (hydroxypropylcellulose) (HPC)) 90 % of control; (dose: 400.0 mg/kg/injection, schedule: Q01DX009 (ip), vehicle: Klucel (hydroxypropylcellulose) (HPC)) 93 % of control.

Turning to `CC(=O)Nc1c(I)cc2c(c1I)Cc1cc([N+](=O)[O-])ccc1-2`, the T/C runs as follows: under setting [4], 98 % of control; under setting [5], 104 % of control; (dose: 400.0 mg/kg/injection, schedule: Q01DX001 (ip), vehicle: carboxymethylcellulose (CMC)) 93 % of control.

Regarding `CC(C)(C)OC(=O)CCN1CC1`, the T/C is 109 % of control (dose: 75.0 mg/kg/injection, schedule: Q01DX001 (ip), vehicle: saline) and 104 % of control (dose: 150.0 mg/kg/injection, schedule: Q01DX001 (ip), vehicle: saline).

These data come from PubChem BioAssay AID248 (DTP/NCI, 2004).
